Results published in patent publication US20220088225A1, “VIRAL TRANSDUCTION USING POLOXAMINES” (SIRION Biotech GmbH, priority 2018, published 2022).

Tested on: A2780 cells
Assay: Lentiviral transduction of adherent A2780 cells, Luciferase-expressing lentivirus, luminescence (RLU)
Format: cell-based, human
Protocol: Human ovarian carcinoma cells A2780 (Sigma Aldrich) and human lung adenocarcinoma cells NCl H1838 (ATTC) were grown in RPMI 1640 medium supplemented with 10% (vol/vol) fetal calf serum (FCS; Biochrom) and 2 mM L-glutamine (PAN Biotech).
The lentiviral transduction vectors p-Ubic-Luc2-IRES-Puro and p-CMV-copGFP-IRES-Puro allow expression of Luciferase driven by Ubic promoter or copGFP by CMV promoter, respectively. Replication-defective lentiviral particles were produced by transient co-transduction of HEK293-TN cells in a T75 flask with 10 μg of packaging plasmids pMDL, pVSV-G, pRev (Roche) and 2 μg of transduction vector using Lipofectamine 2000 (Life Technologies) as transduction reagent according to the manufacturer's instructions. […]
To quantify total viral transgene expression by Luciferase, 100 μl Steady-Glo reagent (Promega) was added to the cells 3 days after viral transduction. The plate with the cells was put into a Tecan Infinite M200 plate reader and shaken for 30 seconds. After incubation for 10 minutes at room temperature, luminescence signal was measured by the plate reader. […]
As controls virus only (with H2O instead of adjuvant), or […] Polybrene was added to the wells before transduction. […] Three days post transduction the efficiency of transduction was assessed by measuring luciferase activity on a plate reader. Results are presented in relative luminescence units (RLU). […]

Substance: Protamine sulfate
- increase of total transgene expression compared to virus only (5 μg/ml Protamine sulfate alone): 1.14 fold
- increase of total transgene expression compared to virus only (40 μg/ml Protamine sulfate alone): 2.08 fold
